Assay results as given in patent EP3323412A1, “FORMULATION COMPRISING 4-METHYLPYRAZOLE” (Amalicon Holding AG, priority 2016, dated 2018).

Test: in vivo
Parameters: species or system dogs
Settings: dog, iv, 10 mg/kg
Method: The formulations of 4-MP with PEG-300 and PEG-400 show an oral bioavailability of about 110% when compared with an i.v. formulation at a dose of 10mg/kg in PK studies in dogs.
The following tables 1 to 3 show results of pharmacokinetic studies of the formulation of Example 3 (capsule containing 50 mg 4-MP and 250 mg PEG-400; Table 1) in comparison with a reference formulation (capsule containing 50 mg 4-MP and PEG-8000; Table 2) and IV administration of 4-MP. For these pharmacokinetic studies, 4-MP was administered to dogs at 10 mg/kg body weight. Table 1: Pharmacokinetic parameters of 4-methylpyrazole following oral administration of the formulation of Example 3 at 10 mg/kg: […]

Cc1cn[nH]c1 [4-methylpyrazole, 4-Methylpyrazole]
AUC(0-t) (AUC0-t): 88.3 µg·h/mL
AUC(0-inf) (AUC0-∞): 145 µg·h/mL
clearance (CL): 1.15 mL/min/kg
Cmax (Cmax): 22600 ng/mL
Vd (Vd): 0.94 L/kg
Vd (Vdss): 0.89 L/kg
